Experiments:
Assay type in all cases: in vivo
[1] = test system: Cabbage Looper (Trichoplusia ni) ("CL"), second instar larvae; experiment: Bioassay on cabbage looper (CL), 128-well diet tray assay; conditions: Trichoplusia ni, read-out: CL (Biological Results, rating)
Outline: (§1)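 Sealed trays, 25° C., 14:10 light:dark, 5–7 d. Per-well % mortality recorded, mean of eight wells reported.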

[2] = test system: Beet Armyworm (Spodoptera exigua) ("BAW"), second instar larvae; experiment: Bioassay on beet armyworm (BAW), 128-well diet tray assay; conditions: Spodoptera exigua, read-out: BAW (Biological Results, rating)
Outline: as §1

[3] = test system: Green Peach Aphid ("GPA") (Myzus persicae), wingless adult and nymph stages; experiment: Bioassay on green peach aphid (GPA), foliar spray on infested cabbage seedlings; conditions: Myzus persicae, foliar, 72 h, read-out: GPA (Biological Results, rating)
Outline: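 Cabbage seedlings with 2-3 true leaves, infested one day earlier with 20-50 wingless adult and nymph GPA, sprayed to runoff on both leaf sides; solvent check held 20% acetone/methanol (1:1). Live aphids counted after three days at about 25° C; corrected % control = 100*(X−Y)/X versus solvent check.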

Row | Compound | pest or weed control at 50 µg/cm2 [1] | pest or weed control at 50 µg/cm2 [2] | pest or weed control at 200 µg/mL [3]
1 | COc1ccc(C(C)C)c(N2C(=O)CS/C2=N\C(=O)Nc2ccc(-c3ncn(-c4cccc(OC(F)(F)F)c4)n3)cc2C)c1 [Compound J136, (Z)-1-(3-(2-Isopropyl-5-methoxyphenyl)-4-oxothiazolidin-2-ylidene)-3-(2-methyl-4-(1-(3-(trifluoromethoxy)phenyl)-1H-1,2,4-triazol-3-yl)phenyl)urea] | 50 to 100% | 50 to 100% | 0 to 80%
2 | Cc1cc(-c2ncn(-c3cccc(OC(F)(F)F)c3)n2)ccc1NC(=O)/N=C1\SCC(=O)N1c1cc(N(C)C)ccc1C(C)C [Compound J137, (Z)-1-(3-(5-(Dimethylamino)-2-isopropylphenyl)-4-oxothiazolidin-2-ylidene)-3-(2-methyl-4-(1-(3-(trifluoromethoxy)phenyl)-1H-1,2,4-triazol-3-yl)phenyl)urea] | 50 to 100% | 50 to 100% | 0 to 80%
3 | Cc1ccc(OCCC(F)(F)F)c(N2C(=O)CS/C2=N\C(=O)Nc2ccc(-c3ncn(-c4cccc(OC(F)(F)F)c4)n3)cc2C)c1 [Compound J138, (Z)-1-(3-(5-Methyl-2-(3,3,3-trifluoropropoxy)phenyl)-4-oxothiazolidin-2-ylidene)-3-(2-methyl-4-(1-(3-(trifluoromethoxy)phenyl)-1H-1,2,4-triazol-3-yl)phenyl)urea] | 50 to 100% | 50 to 100% | 0 to 80%
4 | Cc1ccc(COCC(F)(F)F)c(N2C(=O)CS/C2=N\C(=O)Nc2ccc(-c3ncn(-c4ccc(OC(F)(F)F)cc4)n3)cc2C)c1 [Compound J139, (Z)-1-(3-(5-Methyl-2-((2,2,2-trifluoroethoxy)methyl)phenyl)-4-oxothiazolidin-2-ylidene)-3-(2-methyl-4-(1-(4-(trifluoromethoxy)phenyl)-1H-1,2,4-triazol-3-yl)phenyl)urea] | 50 to 100% | 50 to 100% | 0 to 80%
5 | CCOC(C)c1ccc(C)cc1N1C(=O)CS/C1=N\C(=O)Nc1ccc(-c2ncn(-c3ccc(OC(F)(F)F)cc3)n2)cc1C (stereo not drawn) [Compound J141, (Z)-1-(3-(2-(1-Ethoxyethyl)-5-methylphenyl)-4-oxothiazolidin-2-ylidene)-3-(2-methyl-4-(1-(4-(trifluoromethoxy)phenyl)-1H-1,2,4-triazol-3-yl)phenyl)urea] | 50 to 100% | 50 to 100% | 0 to 80%
6 | Cc1ccc(OCCC(F)(F)F)c(N2C(=O)CS/C2=N\C(=O)Nc2ccc(-c3ncn(-c4cccc(C(F)(F)F)c4)n3)cc2F)c1 [Compound J142, (Z)-1-(2-Fluoro-4-(1-(3-(trifluoromethyl)phenyl)-1H-1,2,4-triazol-3-yl)phenyl)-3-(3-(5-methyl-2-(3,3,3-trifluoropropoxy)phenyl)-4-oxothiazolidin-2-ylidene)urea] | 50 to 100% | 50 to 100% | 0 to 80%
7 | Cc1ccc(C(C)C)c(N2C(=O)CS/C2=N\C(=O)Nc2ccc(-c3ncn(-c4cccc(OC(F)(F)F)c4)n3)cc2F)c1 [Compound J143, (Z)-1-(2-Fluoro-4-(1-(3-(trifluoromethoxy)phenyl)-1H-1,2,4-triazol-3-yl)phenyl)-3-(3-(2-isopropyl-5-methylphenyl)-4-oxothiazolidin-2-ylidene)urea] | 50 to 100% | 50 to 100% | 0 to 80%
8 | COc1ccc(-n2cnc(-c3ccc(NC(=O)/N=C4\SCC(=O)N4c4cc(OC)ccc4C(C)C)c(F)c3)n2)cc1 [Compound J145, (Z)-1-(2-Fluoro-4-(1-(4-methoxyphenyl)-1H-1,2,4-triazol-3-yl)phenyl)-3-(3-(2-isopropyl-5-methoxyphenyl)-4-oxothiazolidin-2-ylidene)urea] | 50 to 100% | 50 to 100% | 0 to 80%
9 | COc1ccc(-n2cnc(-c3ccc(NC(=O)/N=C4\SCC(=O)N4c4cc(N(C)C)ccc4C(C)C)c(F)c3)n2)cc1 [Compound J146, (Z)-1-(3-(5-(Dimethylamino)-2-isopropylphenyl)-4-oxothiazolidin-2-ylidene)-3-(2-fluoro-4-(1-(4-methoxyphenyl)-1H-1,2,4-triazol-3-yl)phenyl)urea] | 50 to 100% | 50 to 100% | 0 to 80%
10 | Cc1ccc(-n2cnc(-c3ccc(NC(=O)/N=C4\SCC(=O)N4c4cc(C)ccc4C(C)C)c(F)c3)n2)cc1 [Compound J148, (Z)-1-(2-Fluoro-4-(1-(p-tolyl)-1H-1,2,4-triazol-3-yl)phenyl)-3-(3-(2-isopropyl-5-methylphenyl)-4-oxothiazolidin-2-ylidene)urea] | 50 to 100% | 50 to 100% | 0 to 80%
11 | COc1ccc(C(C)C)c(N2C(=O)CS/C2=N\C(=O)Nc2ccc(-c3ncn(-c4ccc(C)cc4)n3)cc2F)c1 [Compound J149, (Z)-1-(2-Fluoro-4-(1-(p-tolyl)-1H-1,2,4-triazol-3-yl)phenyl)-3-(3-(2-isopropyl-5-methoxyphenyl)-4-oxothiazolidin-2-ylidene)urea] | 50 to 100% | 50 to 100% | 0 to 80%
12 | Cc1ccc(-n2cnc(-c3ccc(NC(=O)/N=C4\SCC(=O)N4c4cc(C)ccc4OCCC(F)(F)F)c(F)c3)n2)cc1 [Compound J151, (Z)-1-(2-Fluoro-4-(1-(p-tolyl)-1H-1,2,4-triazol-3-yl)phenyl)-3-(3-(5-methyl-2-(3,3,3-trifluoropropoxy)phenyl)-4-oxothiazolidin-2-ylidene)urea] | 50 to 100% | 50 to 100% | 0 to 80%
13 | COc1ccc(C(C)C)c(N2C(=O)CS/C2=N\C(=O)Nc2ccc(-c3ncn(-c4cccc(C(F)(F)F)c4)n3)cc2F)c1 [Compound J152, (Z)-1-(2-Fluoro-4-(1-(3-(trifluoromethyl)phenyl)-1H-1,2,4-triazol-3-yl)phenyl)-3-(3-(2-isopropyl-5-methoxyphenyl)-4-oxothiazolidin-2-ylidene)urea] | 50 to 100% | 50 to 100% | 0 to 80%
14 | CC(C)c1ccc(N(C)C)cc1N1C(=O)CS/C1=N\C(=O)Nc1ccc(-c2ncn(-c3cccc(C(F)(F)F)c3)n2)cc1F [Compound J153, (Z)-1-(3-(5-(Dimethylamino)-2-isopropylphenyl)-4-oxothiazolidin-2-ylidene)-3-(2-fluoro-4-(1-(3-(trifluoromethyl)phenyl)-1H-1,2,4-triazol-3-yl)phenyl)urea] | 50 to 100% | 50 to 100% | 0 to 80%
15 | COc1ccc(C(C)C)c(N2C(=O)CS/C2=N\C(=O)Nc2ccc(-c3ncn(-c4cccc(OC(F)(F)F)c4)n3)cc2F)c1 [Compound J154, (Z)-1-(2-Fluoro-4-(1-(3-(trifluoromethoxy)phenyl)-1H-1,2,4-triazol-3-yl)phenyl)-3-(3-(2-isopropyl-5-methoxyphenyl)-4-oxothiazolidin-2-ylidene)urea] | 50 to 100% | 50 to 100% | 0 to 80%
16 | Cc1ccc(COCC(F)(F)F)c(N2C(=O)CS/C2=N\C(=O)Nc2ccc(-c3ncn(-c4ccc(C(F)(F)F)cc4)n3)cc2F)c1 [Compound J168, (Z)-1-(2-Fluoro-4-(1-(4-(trifluoromethyl)phenyl)-1H-1,2,4-triazol-3-yl)phenyl)-3-(3-(5-methyl-2-((2,2,2-trifluoroethoxy)methyl)phenyl)-4-oxothiazolidin-2-ylidene)urea] | 50 to 100% | 50 to 100% | 0 to 80%
17 | CCCc1ccc(OCC)cc1N1C(=O)CS/C1=N\C(=O)Nc1ccc(-c2ncn(-c3ccc(OC(F)(F)F)cc3)n2)cc1F [Compound J169, (Z)-1-(3-(5-Ethoxy-2-propylphenyl)-4-oxothiazolidin-2-ylidene)-3-(2-fluoro-4-(1-(4-(trifluoromethoxy)phenyl)-1H-1,2,4-triazol-3-yl)phenyl)urea] | 50 to 100% | 50 to 100% | 0 to 80%
18 | COCOc1cc(-c2ncn(-c3ccc(OC(F)(F)F)cc3)n2)ccc1NC(=O)/N=C1\SCC(=O)N1c1cc(N(C)C)ccc1C(C)C [Compound J172, (Z)-1-(3-(5-(Dimethylamino)-2-isopropylphenyl)-4-oxothiazolidin-2-ylidene)-3-(2-(methoxymethoxy)-4-(1-(4-(trifluoromethoxy)phenyl)-1H-1,2,4-triazol-3-yl)phenyl)urea] | 50 to 100% | 50 to 100% | 0 to 80%
19 | CCOCc1ccc(C)cc1N1C(=O)CS/C1=N\C(=O)Nc1ccc(-c2ncn(-c3ccc(OC(F)(F)F)cc3)n2)cc1F [Compound J180, (Z)-1-(3-(2-(Ethoxymethyl)-5-methylphenyl)-4-oxothiazolidin-2-ylidene)-3-(2-fluoro-4-(1-(4-(trifluoromethoxy)phenyl)-1H-1,2,4-triazol-3-yl)phenyl)urea] | 50 to 100% | 50 to 100% | 0 to 80%
20 | COC(c1ccc(C)cc1N1C(=O)CS/C1=N\C(=O)Nc1ccc(-c2ncn(-c3ccc(OC(F)(F)F)cc3)n2)cc1F)C(F)(F)F (stereo not drawn) [Compound J181, (Z)-1-(2-Fluoro-4-(1-(4-(trifluoromethoxy)phenyl)-1H-1,2,4-triazol-3-yl)phenyl)-3-(3-(5-methyl-2-(2,2,2-trifluoro-1-methoxyethyl)phenyl)-4-oxothiazolidin-2-ylidene)urea] | 50 to 100% | 50 to 100% | 0 to 80%

— US20230077362A1 (CORTEVA AGRISCIENCE LLC, priority 2019, published 2023)
